Experimental data taken from publication PMC3812159, “A Comparative Analysis of the Ubiquitination Kinetics of Multiple Degrons to Identify an Ideal Targeting Sequence for a Proteasome Reporter” (PLoS ONE, 2013).

Legend:
Hdm2 = target: T1, Hdm2 (Homo sapiens, UniProt Q00987); assay: Cell-free ubiquitination assay; format: biochemical; details: 1 µM Hdm2, 1 µM Ube1, 10 µM UbcH5b, 10 µM peptide, wild type ubiquitin, 2 hours at 30°C
T1 construct: purchased Enzo Life Sciences
Method: Samples were run on gels and imaged as described above.
Figure 5 Variations in E3 ligase activity result in fluxuations in degron-based substrate ubiquitination. (A) To evaluate the impact of different levels of E3 ligase activity, the four top performing degron-based substrates (β-Catenin, Bonger, iNOS, and p53) were incubated in lysates from four different cell lines (HeLa, U937, THP-1, and HL60) in the ubiquitin pull down assay. Further, the assay was supplemented with wild type ubiquitin to examine polyubiquitin chain formation. All reaction mixtures were incubated for 2 hours at 37°C prior to continuation with the pull down assay. (B) The effects of a NEDD8 inhibitor (MLN-4924) and an E1 inhibitor (PYR-41) were examined on the TAZ-based substrate (a target of the SCF^βTrCP E3 ligase). The ubiquitin pull down was performed as previously described with the reactions incubated for 2 hours with the listed inhibitor concentrations at 37°C prior to continuation with the pull down assay. (C) A cell-free ubiquitination assay was performed on the p53-based substrate using an enzymatic cascade culminating with 1 µM Hdm2 and supplemented with wild type ubiquitin. Lane 1 contains all assay components, lane 2–4 were control experiments removing a member of the E1–E3 enzymatic cascade. […]

SCF^βTrCP = details: published substrate; optimized test tube reaction with excess E1, E2, and E3 ligases, no competing peptidases; cited from earlier work
Excerpt: While there exist kinetic studies of specific E3 ligases, [47], [48] and individual degrons there has not been a comprehensive analysis of ubiquitination kinetics of multiple degrons in a single study. The presented work allowed for the calculation of rate constants for multiple degrons in a single cell line, effectively comparing the ubiquitination kinetics of different E3 ligase targets.

[1] = system: endogenous proteases and peptidases found in the S100 lysates
Method: The in vitro ubiquitination assay was carried out at the indicated times at 37°C in a total reaction volume of 25 µL containing assay buffer (10 mM Tris-HCl pH 7.6 and 5 mM MgCl2) with 2 mM DTT, 20 µg/mL ubiquitin aldehyde (Boston Biochem), 400 µg/mL methylated ubiquitin (Enzo Life Sciences), 1×ATP energy regenerating solution (ATP-ERS, Boston Biochem), 100 µM of the proteasome inhibitor MG-132 (EMD Chemicals), 2 mg/mL HeLa S100 cytosolic lysates as the source of E1, E2, and E3 enzymes, 750 ng of indicated peptide substrate, and inhibitors Complete ULTRA and PhosSTOP (Roche). Reactions were halted by addition of 2× tricine sample buffer (Bio-Rad) and subsequent boiling. Samples were loaded onto SDS page gels (precast 16.5% Mini PROTEAN Tris-Tricine, Bio-Rad) using 1× tris-tricine running buffer and visualized with a Typhoon Imager (GE Healthcare Life Sciences). Gels were quantified using ImageJ (US National Institute of Health) by comparing sample intensity to unreacted parent peptide intensity, which is not depicted in the gels.
Ubiquitin pull down assays were performed similarly to the in vitro ubiquitination assay as described above, with the exception of a total volume of 100 µL and 4.2 µg of peptide substrate. At the end of the indicated times, samples were incubated with Control-Agarose beads (LifeSensors), diluted in TBS-T buffer (20 mM Tris-HCl pH 8.0, 150 mM NaCl, and 0.1% v/v Tween-20), for 60 min on a tube rotator at 4°C. Samples were subsequently centrifuged at 1800×g for 5 min to pellet and remove control beads. The supernatant was transferred to solution of Agarose-TUBES1 (LifeSensors) diluted in TBS-T and incubated overnight on a tube rotator at 4°C. Ubiquitin-bound beads were washed 5× with TBS-T and then the samples were eluted off of the bead with 2× tricine sample buffer, boiled for 5 min, and then isolated by centrifugation for 5 min at 13000×g. Samples were loaded onto an SDS PAGE gel, electrophoresed, visualized and quantified as described above.
The series of ordinary differential equations were solved in MATLAB using ODE15s and the boundary conditions defined in equations S1–S6. Kinetic rate constants were determined using a Markov Chain Monte Carlo (MCMC) algorithm in MATLAB by minimizing the cumulative sum of the squared deviations (cSSD), as defined by equations S8–S9, between the calculated and experimental data similar to previous work by Cirit et. al. [23].
To accomplish this objective, a kinetic model was developed to describe the step-wise ubiquitination of the degron-based substrates. The goal of this model was to both determine the reaction kinetics for ubiquitin transfer to the degron-based substrates and distinguish polyubiquitination from multi-monoubiquitination. […] Each step in the reaction was described by a corresponding rate constant (k1–k9). Due to the presence of the deubiquitinating enzyme (DUB) inhibitor ubiquitin aldehyde, substrate deubiquitination was neglected. Further, the proteasome inhibitor MG-132 was added at an appropriate amount to neglect proteasome-mediated degradation of the substrates.

[2] = system: HeLa S100 cytosolic lysates as the source of E1, E2, and E3 enzymes; assay: Ubiquitin pull down assay with methylated ubiquitin, multi-monoubiquitination kinetic model; format: biochemical; details: ratio of fitted rate constants, >1 favours ubiquitination, <1 degradation
Excerpt: A second model based on substrate multi-monoubiquitination was developed and evaluated. This model assumed that the generation of di-, tri-, and tetra-ubiquitinated species was the result of multiple methylated ubiquitins being conjugated to the multiple available lysines found on the degron-based substrate (Figure 3a). As opposed to the polyubiquitination model, the multi-monoubiquitination model accurately fit the data for all eight degron-based substrates (Figure 3b–d, Figure S4 in File S1, Table 2). Using this model, kinetic rate constants for all ubiquitination (k1 for mono-, k2 for di-, k3 for tri-, and k4 for tetra-) and peptidase-dependent degradation steps (Table 2) were calculated. The multi-monoubiquitination model nicely corresponded to the observed results in Figure 2. […] The model also captured the preference for di-ubiquitination of the Cyclin D1 degron (k2 is two-fold greater than k1) and the equal preference of mono- and di-ubiquitination states found in the HIF-1α degron (k1 of 2.6 and k2 of 3.0). Further, the similar behavior and observed kinetics for IFNAR and TAZ degrons were mostly likely due to the fact that these degrons are recognized by the same E3 ligase, SCF^βTrCP (Table 1). To test the robustness of the multi-monoubiquitination model, a ninth substrate based on the degron from the protein β-Catenin was assessed. This substrate was selected because it is ubiquitinated by the same E3 ligase as TAZ and IFNAR1, SCF^βTrCP. The model accurately fit the data for the multi-monoubiquitination of the β-Catenin degron-based substrate with similar rate constants compared to the TAZ and IFNAR1-based substrates (Table 2). Finally, it was important to assess the validity of the model by addressing the relative goodness of fit between the experimental data and the model predictions as determined from the multi-monoubiquitination model. For this particular analysis it was decided to calculate the sample Pearson correlation coefficient (Eq. S10 in File S1), a widely used metric to measure the dependence between two variables. A correlation coefficient was calculated between the model predictions and experimental data for mono-, di-, tri-, and tetra-ubiquitinated substrate for all nine degron-based substrates (Table S1 in File S1). As per convention, a positive value approaching 1 corresponds to a very good fit, which is observed for all nine substrates indicating a good fit between model and data.

T1 sequence (Q00987 whole entry): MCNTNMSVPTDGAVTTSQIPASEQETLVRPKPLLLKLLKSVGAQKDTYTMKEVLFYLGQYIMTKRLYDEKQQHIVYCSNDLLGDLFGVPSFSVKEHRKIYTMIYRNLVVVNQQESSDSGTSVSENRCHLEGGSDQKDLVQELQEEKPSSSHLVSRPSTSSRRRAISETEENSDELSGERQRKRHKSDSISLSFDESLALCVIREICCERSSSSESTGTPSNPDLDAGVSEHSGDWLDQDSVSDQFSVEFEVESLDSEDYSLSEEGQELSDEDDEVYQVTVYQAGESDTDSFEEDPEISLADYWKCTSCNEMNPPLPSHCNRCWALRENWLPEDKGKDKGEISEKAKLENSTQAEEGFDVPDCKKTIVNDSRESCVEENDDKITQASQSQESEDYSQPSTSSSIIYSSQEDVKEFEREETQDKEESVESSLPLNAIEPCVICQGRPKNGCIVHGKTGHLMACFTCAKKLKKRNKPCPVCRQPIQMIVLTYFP

Compound: CN(C)CCCNc1c2c(=O)n(C)c(=O)nc-2n(C)c2ccccc12 [HLI-373]
- effect of inhibitor on Hdm2-dependent ubiquitination of the p53-based substrate (Hdm2; inhibitor 1, 10 µM): No decrease

Compound: Cc1ccc2ccc(C(Nc3ccccc3)c3ccccc3)c(O)c2n1 (centres unmarked) [NSC-66811]
- effect of inhibitor on Hdm2-dependent ubiquitination of the p53-based substrate (Hdm2; inhibitor 1 µM dose): pronounced decrease

Compound: KAWQQQSYLDSGIHSGATTTAPK(FAM)KKK [β-Catenin, fluorescein-tagged degron-based peptide substrate from β-Catenin, E3 ligase SCF^βTrCP]
- rate constant for β-Catenin ubiquitination previously reported (SCF^βTrCP): 0.28 min⁻¹
- k6, rate constant for peptidase-dependent degradation of mono-ubiquitinated substrate [1]: 0.1 (1/min)*10^3
- k7, rate constant for peptidase-dependent degradation of di-ubiquitinated substrate [1]: 0.1 (1/min)*10^3
- k8, rate constant for peptidase-dependent degradation of tri-ubiquitinated substrate [1]: 1.0 (1/min)*10^3
- k9, rate constant for peptidase-dependent degradation of tetra-ubiquitinated substrate [1]: 3.0 (1/min)*10^3
- k1/k5, mono-ubiquitination vs. degradation of unmodified substrate [2]: 1.55
